Measurements reported in PubChem BioAssay AID1963837 (Molecular Pharmacology Branch, DTP, NCI, 2024).

Tested on: 843126-344-R-J1-PDC complex spheroid viability
Test: Anticancer human tumor 843126-344-R-J1-PDC patient-derived melanoma cell line growth inhibition [POLQ]
Conditions: for IC50: curve of first compound; for viability, T/C: stronger effect = lower value
Procedure, shortened: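 Growth inhibition in 3D: complex spheroids (tumor PDC, HUVEC, MSC) treated with POLQ inhibitor combinations; where Cmax unknown, highest tested concentration 10 microM, except SN-38 at 1 microM.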

[1] = second compound 0.0316 µM, first compound 0.0316 µM
[2] = second compound 0.0316 µM, first compound 0.1 µM
[3] = second compound 0.0316 µM, first compound 0.316 µM
[4] = second compound 0.0316 µM, first compound 1 µM
[5] = second compound 0.0316 µM, first compound 3.16 µM
[6] = second compound 0.0316 µM, first compound 10 µM
[7] = second compound 0.1 µM, first compound 0.0316 µM
[8] = second compound 0.1 µM, first compound 0.1 µM
[9] = second compound 0.1 µM, first compound 0.316 µM
[10] = second compound 0.1 µM, first compound 1 µM
[11] = second compound 0.1 µM, first compound 3.16 µM
[12] = second compound 0.1 µM, first compound 10 µM
[13] = second compound 0.316 µM, first compound 0.0316 µM
[14] = second compound 0.316 µM, first compound 0.1 µM
[15] = second compound 0.316 µM, first compound 0.316 µM
[16] = second compound 0.316 µM, first compound 1 µM
[17] = second compound 0.316 µM, first compound 3.16 µM
[18] = second compound 0.316 µM, first compound 10 µM
[19] = second compound 1 µM, first compound 0.0316 µM
[20] = second compound 1 µM, first compound 0.1 µM
[21] = second compound 1 µM, first compound 0.316 µM
[22] = second compound 1 µM, first compound 1 µM
[23] = second compound 1 µM, first compound 3.16 µM
[24] = second compound 1 µM, first compound 10 µM
[25] = second compound 3.16 µM, first compound 0.0316 µM
[26] = second compound 3.16 µM, first compound 0.1 µM
[27] = second compound 3.16 µM, first compound 0.316 µM
[28] = second compound 3.16 µM, first compound 1 µM
[29] = second compound 3.16 µM, first compound 3.16 µM
[30] = second compound 3.16 µM, first compound 10 µM
[31] = second compound 10 µM, first compound 0.0316 µM
[32] = second compound 10 µM, first compound 0.1 µM
[33] = second compound 10 µM, first compound 0.316 µM
[34] = second compound 10 µM, first compound 1 µM
[35] = second compound 10 µM, first compound 3.16 µM
[36] = second compound 10 µM, first compound 10 µM
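Throughout, for viability, T/C: spheroids exposed to drugs for seven days before readout.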

SMILES: Nc1ccn(C2OC(CO)C(O)C2(F)F)c(=O)n1 (centres undefined) + Nc1ccc(C#CCN(C(=O)Cc2ncc(C(F)(F)F)cc2C(F)(F)F)c2ccc(F)cc2)nn1
- IC50 (second compound 0.0316 µM): < 0.0316 µM
- IC50 (second compound 0.1 µM): < 0.0316 µM
- IC50 (second compound 0.316 µM): < 0.0316 µM
- IC50 (second compound 1 µM): < 0.0316 µM
- IC50 (second compound 3.16 µM): < 0.0316 µM
- IC50 (second compound 10 µM): < 0.0316 µM
- viability, T/C [1]: 36.5%
- viability, T/C [2]: 35.5%
- viability, T/C [3]: 38.9%
- viability, T/C [4]: 38%
- viability, T/C [5]: 37.6%
- viability, T/C [6]: 35%
- viability, T/C [7]: 43%
- viability, T/C [8]: 41.8%
- viability, T/C [9]: 38.7%
- viability, T/C [10]: 39.8%
- viability, T/C [11]: 38.5%
- viability, T/C [12]: 41.8%
- viability, T/C [13]: 48.2%
- viability, T/C [14]: 38.5%
- viability, T/C [15]: 36%
- viability, T/C [16]: 38%
- viability, T/C [17]: 38.9%
- viability, T/C [18]: 37.3%
- viability, T/C [19]: 36.3%
- viability, T/C [20]: 35.3%
- viability, T/C [21]: 46.5%
- viability, T/C [22]: 35%
- viability, T/C [23]: 38.2%
- viability, T/C [24]: 29.6%
- viability, T/C [25]: 36.4%
- viability, T/C [26]: 35.2%
- viability, T/C [27]: 39.9%
- viability, T/C [28]: 36.2%
- viability, T/C [29]: 37.5%
- viability, T/C [30]: 36.5%
- viability, T/C [31]: 39.5%
- viability, T/C [32]: 38.1%
- viability, T/C [33]: 32.8%
- viability, T/C [34]: 39.9%
- viability, T/C [35]: 31.2%
- viability, T/C [36]: 42.6%

SMILES: O=c1[nH]cc(F)c(=O)[nH]1 + Nc1ccc(C#CCN(C(=O)Cc2ncc(C(F)(F)F)cc2C(F)(F)F)c2ccc(F)cc2)nn1
- IC50 (second compound 0.0316 µM): > 10 µM
- IC50 (second compound 0.1 µM): > 10 µM
- IC50 (second compound 0.316 µM): > 10 µM
- IC50 (second compound 1 µM): > 10 µM
- IC50 (second compound 3.16 µM): > 10 µM
- IC50 (second compound 10 µM): > 10 µM
- viability, T/C [1]: 101%
- viability, T/C [2]: 94.7%
- viability, T/C [3]: 92.9%
- viability, T/C [4]: 92.9%
- viability, T/C [5]: 95.4%
- viability, T/C [6]: 85.5%
- viability, T/C [7]: 103%
- viability, T/C [8]: 110%
- viability, T/C [9]: 103%
- viability, T/C [10]: 89%
- viability, T/C [11]: 82.4%
- viability, T/C [12]: 93.4%
- viability, T/C [13]: 92.4%
- viability, T/C [14]: 109%
- viability, T/C [15]: 101%
- viability, T/C [16]: 101%
- viability, T/C [17]: 111%
- viability, T/C [18]: 92.6%
- viability, T/C [19]: 110%
- viability, T/C [20]: 107%
- viability, T/C [21]: 108%
- viability, T/C [22]: 89.5%
- viability, T/C [23]: 94.3%
- viability, T/C [24]: 90.6%
- viability, T/C [25]: 107%
- viability, T/C [26]: 87.3%
- viability, T/C [27]: 82.8%
- viability, T/C [28]: 82.3%
- viability, T/C [29]: 80%
- viability, T/C [30]: 82.4%
- viability, T/C [31]: 81.9%
- viability, T/C [32]: 86.2%
- viability, T/C [33]: 84.6%
- viability, T/C [34]: 81.9%
- viability, T/C [35]: 88%
- viability, T/C [36]: 76.7%
